Source: patent US20090011410A1, “METHOD FOR TAILORING ADMINISTRATION OF DRUGS BY QUANTITATION OF MRNA” (priority 2004, published 2009)

Experiments:
Format in all cases: cell-based, human
p21 mRNA [1] = experiment: drug-induced p21 mRNA expression in whole blood of leukemia and lymphoma patients
PUMA mRNA [2] = experiment: drug-induced PUMA mRNA expression in whole blood of leukemia and lymphoma patients; conditions: 2 hours at 37° C.; for PUMA response: NHL patient, drug concentrations (FIG. 8C)
BAX mRNA = experiment: drug-induced BAX mRNA expression in whole blood of leukemia and lymphoma patients; conditions: drug concentrations (FIG. 3)
Method: The mRNA and cDNA were prepared from whole blood. In brief, home-made 96-well filterplates were placed over collection plates, and 150 μl 5 mM Tris, pH 7.4, was applied. Following centrifugation at 120×g for 1 min at 4° C., 50 μl of blood samples were applied to each well and immediately centrifuged at 120×g for 2 min at 4° C., followed by washing of each well with 300 μl PBS once with centrifugation at 2000×g for 5 min at 4° C. Then, 60 μl stock lysis buffer, containing for example 0.5% N-Lauroylsarcosine, 4×SSC, 10 mM Tris HCl, pH 7.4, 1 mM EDTA, 0.1% IGEPAL CA-630, and 1.791 M guanidine thiocyanate, supplemented with 1% 2-mercaptoethanol (Bio Rad, Hercules, Calif., USA), 0.5 mg/ml proteinase K (Pierce, Rockford, Ill., USA), 0.1 mg/ml salmon sperm DNA (5 Prime Eppendorf/Brinkmann, Westbury, N.Y., USA), 0.1 mg/ml E. coli tRNA (Sigma), a cocktail of 10 mM each of the specific reverse primers shown in Table 1, and standard RNA34 oligonucleotides, were applied to the filterplates, followed by incubation at 37° C. for 10 min. The filterplates were then placed over oligo(dT)-immobilized microplates (GenePlate, RNAture), and centrifuged at 2000×g for 5 min at 4° C. Following overnight storage at 4° C., the microplates were washed with 100 μl plain lysis buffer 3 times, followed by 150 μl of wash buffer (0.5 M NaCl, 10 mM Tris, pH 7.4, 1 mM EDTA) 3 times at 4° C. The cDNA was directly synthesized in each well by adding 30 μl buffer containing 1× RT-butter, 1.25 mM each of dNTP, 4 units rRNasin, and 80 units of MMLV reverse transcriptase (Promega) (without primers), and incubation at 37° C. for 2 hours. The specific primer-primed cDNA existed in solution, and oligo(dT)-primed cDNA stayed immobilized in the microplate. For TaqMan PCR (FIGS. 1, 3, 4), the resultant 4 μl cDNA solution was directly transferred to 384-well PCR plates, to which 5 μl of TaqMan universal master mix (ABI) and 1 μl oligonucleotide cocktail (15 μM each of forward and reverse primer, and 3-6 μM TaqMan probe) were applied, and PCR was conducted in PRISM 7900HT (ABI), with one cycle of 95° C. for 10 min followed by 45 cycles of 95° C. for 30 sec, 55° C. for 30 sec, and 60° C. for 1 min. […] The Ct was determined by analytical software (SDS, ABI).

p21 mRNA [3] = experiment: drug-induced p21 mRNA expression in whole blood of healthy adults; conditions: 10 or 100 μM taxol, 2 hours at 37° C., all individuals (FIG. 13)
From the text: Blood was obtained from healthy adults and from two leukemic non-Hodgkin's malignant lymphoma patients. U937, KG-1, and Jurkat cells were obtained from American Type Culture Collection (ATCC, Manassas, Va.), and maintained in RPMI 1640 supplemented with 10% fetal calf serum. Of these, U937 cells are a human histiocytic lymphoma cell line, KG-1 cells are a human bone marrow myelogenous leukemia cell line, and Jurkat cells are a human T-cell lymphoblast-like, leukemia derived cell line. […] For human experiments, blood aliquots were stimulated with various anti-cancer drugs at 37° C. for 2 hours, then both p21 and BAX mRNA were measured. The anti-cancer drugs used in this study were clinical drugs, and the concentration of each drug was adjusted to typical blood levels 3-6 hours after intravenous administration.
(§1) The mRNA and cDNA were prepared from whole blood. In brief, home-made 96-well filterplates were placed over collection plates, and 150 μl 5 mM Tris, pH 7.4, was applied. Following centrifugation at 120×g for 1 min at 4° C., 50 μl of blood samples were applied to each well and immediately centrifuged at 120×g for 2 min at 4° C., followed by washing of each well with 300 μl PBS once with centrifugation at 2000×g for 5 min at 4° C. Then, 60 μl stock lysis buffer, containing for example 0.5% N-Lauroylsarcosine, 4×SSC, 10 mM Tris HCl, pH 7.4, 1 mM EDTA, 0.1% IGEPAL CA-630, and 1.791 M guanidine thiocyanate, supplemented with 1% 2-mercaptoethanol (Bio Rad, Hercules, Calif., USA), 0.5 mg/ml proteinase K (Pierce, Rockford, Ill., USA), 0.1 mg/ml salmon sperm DNA (5 Prime Eppendorf/Brinkmann, Westbury, N.Y., USA), 0.1 mg/ml E. coli tRNA (Sigma), a cocktail of 10 mM each of the specific reverse primers shown in Table 1, and standard RNA34 oligonucleotides, were applied to the filterplates, followed by incubation at 37° C. for 10 min. The filterplates were then placed over oligo(dT)-immobilized microplates (GenePlate, RNAture), and centrifuged at 2000×g for 5 min at 4° C. Following overnight storage at 4° C., the microplates were washed with 100 μl plain lysis buffer 3 times, followed by 150 μl of wash buffer (0.5 M NaCl, 10 mM Tris, pH 7.4, 1 mM EDTA) 3 times at 4° C. The cDNA was directly synthesized in each well by adding 30 μl buffer containing 1× RT-butter, 1.25 mM each of dNTP, 4 units rRNasin, and 80 units of MMLV reverse transcriptase (Promega) (without primers), and incubation at 37° C. for 2 hours. The specific primer-primed cDNA existed in solution, and oligo(dT)-primed cDNA stayed immobilized in the microplate. For TaqMan PCR (FIGS. 1, 3, 4), the resultant 4 μl cDNA solution was directly transferred to 384-well PCR plates, to which 5 μl of TaqMan universal master mix (ABI) and 1 μl oligonucleotide cocktail (15 μM each of forward and reverse primer, and 3-6 μM TaqMan probe) were applied, and PCR was conducted in PRISM 7900HT (ABI), with one cycle of 95° C. for 10 min followed by 45 cycles of 95° C. for 30 sec, 55° C. for 30 sec, and 60° C. for 1 min. For SYBR Green PCR (see FIG. 6), cDNA was diluted 3-4 fold in water, and 4 μl cDNA solution was directly transferred to 384-well PCR plates, to which 5 μl of a master mix (BioRad, Hercules, Calif.) and 1 μl of oligonucleotide cocktail (15 μM each of forward and reverse primer) were applied, and PCR was conducted in PRISM 7900HT (ABI), with one cycle of 95° C. for 10 min followed by 45 cycles of 95° C. for 30 sec and 60° C. for 1 min. Each gene was amplified in separate wells. The Ct was determined by analytical software (SDS, ABI).
(§2) In 8-well strip microtubes, 1.4 μl of 50× concentrations of drugs or controls (phosphate buffered saline (PBS) or DMSO) were added, and stored at −20° C. until use. […] Seventy μl of fresh heparinized whole blood was added into each well in triplicate, and incubated at 37° C. for 2-8 hours with the cap closed. For radiation treatment, blood was stimulated at designated doses using cesium-137.

PUMA mRNA [4] = experiment: drug-induced PUMA mRNA expression in whole blood of healthy adults; conditions: 10 or 100 μM taxol, 2 hours at 37° C., all individuals (FIG. 13)
Method: as §2, with “cesium-137. After each treatment, 50 μl of whole blood was transferred to filterplates as described below.” for “cesium-137.”
as §1, with “1×RT-buffer,” for “1× RT-butter,”, “ABI). Although 1×RT buffer was used as a negative control, none of the primer pairs produced non-specific primer-dimers under these experimental conditions. For PUMA in FIG. 8, immobilized cDNA on the oligo(dT)-immobilized microplates was directly amplified in an iCycler (BioRad).” for “ABI).”
Quantitation of various mRNAs was conducted using the following method. Triplicate aliquots of 50 μl each of heparinized whole blood was applied to 96-well filterplates to trap leukocytes. The filterplates were placed over collection plates, and 150 μl 5 mM Tris, pH 7.4, was applied. […]

[5] = leukemic lymphoma patient 2, 2 hours at 37° C., drug concentrations (FIG. 3)
[6] = AML patient, drug concentrations of b94 (FIG. 8B)
[7] = CLL patient, drug concentrations of b94 (FIG. 8A)
[8] = leukemic lymphoma patient 1, 2 hours at 37° C., drug concentrations (FIG. 3)
[9] = leukemic lymphoma patient 1, 2 hours at 37° C.

`COc1cccc2c1C(=O)c1c(O)c3c(c(O)c1C2=O)C[C@@](O)(C(=O)CO)C[C@@H]3O[C@H]1C[C@H](N)[C@H](O)[C@H](C)O1` [Adriacin, doxorubicin] was tested. Which “p21 mRNA induction” value (p21 mRNA [1]; [5]) did it give?
Its value is “significant p21 mRNA induction”.

Which PUMA induction (PUMA mRNA [2]; [6]) does the source give for `[NH2][Pt]([NH2])([Cl])[Cl]` [CDDP, cisplatin] here?
Its PUMA induction is “huge induction”.

For `COc1cccc2c1C(=O)c1c(O)c3c(c(O)c1C2=O)C[C@@](O)(C(C)=O)C[C@@H]3O[C@H]1C[C@H](N)[C@H](O)[C@H](C)O1` [DNR, daunorubicin], which PUMA induction (PUMA mRNA [2]; [7]) is on record?
The PUMA induction was “induced”.

How did the “p21 mRNA induction” value (p21 mRNA [1]) turn out when `O=P1(N(CCCl)CCCl)NCCCO1` (stereo not shown) [Endoxan, cyclophosphamide] was run?
The value was “induced”.

With `Nc1nc(F)nc2c1ncn2[C@@H]1O[C@H](CO)[C@@H](O)[C@@H]1O` [Fludara, fludarabine] as the compound, how does the “p21 mRNA induction” value (p21 mRNA [1]; [5]) read?
The value was “significant p21 mRNA induction”.

What about the PUMA induction (PUMA mRNA [2]; [6]) of the same compound?
The PUMA induction was “huge induction”.

Which “BAX mRNA induction” value (BAX mRNA; leukemic lymphoma patient 2, 2 hours at 37° C.) does the source give for `O=C1c2c(O)ccc(O)c2C(=O)c2c(NCCNCCO)ccc(NCCNCCO)c21` [MIT, mitoxantrone] here?
The value was “BAX mRNA induction”.

And the PUMA induction (PUMA mRNA [2]; [6])?
Its PUMA induction is “huge induction”.

And the PUMA induction (PUMA mRNA [2]; [7])?
Its PUMA induction is “induced”.

And the PUMA response (PUMA mRNA [2])?
The PUMA response was “strong PUMA response”.

With `CN(Cc1cnc2nc(N)nc(N)c2n1)c1ccc(C(=O)N[C@@H](CCC(=O)O)C(=O)O)cc1` [MTX, methotrexate] as the compound, how does the PUMA induction (PUMA mRNA [2]; [6]) read?
Its PUMA induction is “huge induction”.

And the PUMA response (PUMA mRNA [2])?
The PUMA response was “strong PUMA response”.

For `Cc1c(N)nc([C@H](CC(N)=O)NC[C@H](N)C(N)=O)nc1C(=O)N[C@H](C(=O)N[C@H](C)[C@@H](O)[C@H](C)C(=O)N[C@H](C(=O)NCCc1nc(-c2nc(C(=O)NCCCN[C@@H](C)c3ccccc3)cs2)cs1)[C@@H](C)O)[C@@H](O[C@@H]1O[C@@H](CO)[C@@H](O)[C@H](O)[C@@H]1O[C@H]1O[C@H](CO)[C@@H](O)[C@H](OC(N)=O)[C@@H]1O)c1c[nH]cn1` [PEP, peplomycin], which PUMA induction (PUMA mRNA [2]; [6]) is on record?
Its PUMA induction is “huge induction”.

`[NH2][Pt]1([NH2])[O]C(=O)C2(CCC2)C(=O)[O]1` [Paraplatin, carboplatin] was tested. Which “p21 mRNA induction” value (p21 mRNA [1]; [8]) did it give?
Its value is “significant induction”.

What about the “BAX mRNA induction” value (BAX mRNA; [9]) of the same compound?
The value was “significant induction”.

How did the “p21 mRNA induction” value (p21 mRNA [1]; [8]) turn out when `COc1cccc2c1C(=O)c1c(O)c3c(c(O)c1C2=O)C[C@@](O)(C(=O)CO)C[C@@H]3O[C@H]1C[C@H](N)[C@H](O[C@@H]2CCCCO2)[C@H](C)O1` [THP, pirarubicin] was run?
Its value is “significant induction”.

What about the “BAX mRNA induction” value (BAX mRNA; [9]) of the same compound?
Its value is “significant induction”.

And the PUMA induction (PUMA mRNA [2]; [6])?
Its PUMA induction is “huge induction”.

What about the PUMA response (PUMA mRNA [2]) of the same compound?
The PUMA response was “strong PUMA response”.

`CC[C@]1(O)C[C@@H]2CN(CCc3c([nH]c4ccccc34)[C@@](C(=O)OC)(c3cc4c(cc3OC)N(C)[C@H]3[C@@](O)(C(=O)OC)[C@H](OC(C)=O)[C@]5(CC)C=CCN6CC[C@]43[C@@H]65)C2)C1` [VLB, vinblastine] was tested. Which p21 induction (p21 mRNA [1]; AML patient, 2 hours at 37° C., drug concentrations of b94 (FIG. 8B)) did it give?
The p21 induction was “significant p21 induction”.

Which results are given for `CC(=O)O[C@H]1C(=O)[C@@]2(C)[C@H]([C@H](OC(=O)c3ccccc3)[C@]3(O)C[C@H](OC(=O)[C@H](O)[C@@H](NC(=O)c4ccccc4)c4ccccc4)C(C)=C1C3(C)C)[C@]1(OC(C)=O)CO[C@@H]1C[C@@H]2O` [taxol]?
p21 mRNA induction (p21 mRNA [3]): failed to induce; PUMA mRNA induction (PUMA mRNA [4]): failed to induce
